Assays:
Assay in all cases: relative viability (nuclei count vs DMSO), 5 days (fraction); higher = more cells survive
[1] = compound: CC[C@@H]1C(=O)N(C)c2cnc(Nc3ccc(C(=O)NC4CCN(C)CC4)cc3OC)nc2N1C1CCCC1 [BI-2536] + O=C(CCCCCCC(=O)Nc1ccccc1)NO [Vorinostat] (partner 1 µM)
Method in brief: (§1)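 Five library-drug doses in √10 steps were combined with a fixed anchor-drug dose, or a single drug was given alone, by pin tool to lung cancer cell lines in 1536-well plates the day after seeding. Nuclei were stained and counted after 5 days. Relative viability is the nuclei count in treated wells over that in vehicle wells, taken as the median of duplicate plates.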

[2] = compound: CC[C@@H]1C(=O)N(C)c2cnc(Nc3ccc(C(=O)NC4CCN(C)CC4)cc3OC)nc2N1C1CCCC1 [BI-2536] + Cc1cc(Nc2cc(N3CCN(C)CC3)nc(Sc3ccc(NC(=O)C4CC4)cc3)n2)n[nH]1 [Tozasertib] (partner 0.1 µM)
Method in brief: as §1

[3] = compound: CC1CC(=O)N(C2=CN=C(N=C2N1C3CCCC3)NC4=C(C=C(C=C4)C(=O)NC5CCN(CC5)C)OC)C [NPK76-II-72-1] + Nc1ncn([C@H]2C[C@H](O)[C@@H](CO)O2)c(=O)n1 [Decitabine] (partner 2 µM)
Method in brief: as §1

[4] = compound: CC1CC(=O)N(C2=CN=C(N=C2N1C3CCCC3)NC4=C(C=C(C=C4)C(=O)NC5CCN(CC5)C)OC)C [NPK76-II-72-1] + C[C@@H](Oc1cc(-c2cnn(C3CCNCC3)c2)cnc1N)c1c(Cl)ccc(F)c1Cl [Crizotinib] (partner 1 µM)
Method in brief: as §1

Cell Line	relative viability ([1]; first compound 0.01 µM)	relative viability ([1]; first compound 0.03162 µM)	relative viability ([1]; first compound 0.1 µM)	relative viability ([1]; first compound 0.3162 µM)	relative viability ([1]; first compound 1 µM)	relative viability ([2]; first compound 0.01 µM)	relative viability ([2]; first compound 0.03162 µM)	relative viability ([2]; first compound 0.1 µM)	relative viability ([2]; first compound 0.3162 µM)	relative viability ([2]; first compound 1 µM)	relative viability ([3]; first compound 0.01 µM)	relative viability ([3]; first compound 0.03162 µM)	relative viability ([3]; first compound 0.1 µM)	relative viability ([3]; first compound 0.3162 µM)	relative viability ([3]; first compound 1 µM)	relative viability ([4]; first compound 0.01 µM)	relative viability ([4]; first compound 0.03162 µM)	relative viability ([4]; first compound 0.1 µM)	relative viability ([4]; first compound 0.3162 µM)	relative viability ([4]; first compound 1 µM)
NCI-H460	0.735	1.07	0.119	0.0148	0.014	0.367	0.477	0.336	0.0323	0.0403	0.432	0.492	0.521	0.455	0.47	0.945	1.03	1.06	0.876	0.898
NCI-H650	0.418	0.479	0.145	0.154	0.128	0.64	0.529	0.358	0.181	0.16	0.316	0.33	0.358	0.311	0.299	0.799	0.865	0.629	–	0.825
NCI-H661	0.714	0.323	0.292	0.302	0.306	0.367	0.373	0.384	0.316	0.31	0.582	0.553	0.589	0.458	0.56	0.873	0.937	0.982	–	0.995
NCI-H1734	0.734	0.543	0.17	0.165	0.169	0.251	0.271	0.26	0.253	0.26	0.49	0.456	0.479	0.479	0.525	0.703	0.666	0.727	0.642	0.736
LXF-289	0.855	0.684	0.372	0.0658	0.0936	0.216	0.214	0.206	0.0925	0.11	0.345	0.374	0.364	0.383	0.357	0.829	0.84	0.823	0.801	0.828
H3255	0.736	0.786	0.447	0.519	0.306	0.569	0.507	0.586	0.196	0.224	0.622	0.58	0.614	–	0.688	0.855	0.887	0.819	–	1.16
201T	0.967	0.98	0.841	0.254	0.31	0.996	0.925	0.93	0.41	0.388	0.818	0.87	0.906	0.887	0.886	1.01	1.01	1.02	1.01	1.01
NCI-H2126	0.8	0.832	0.243	0.218	0.177	0.884	0.373	0.296	0.236	0.269	0.57	0.554	0.569	0.516	0.538	1.02	1.07	0.965	1.01	1.06
HOP-62	0.528	0.74	0.188	0.104	0.13	0.337	0.424	0.29	0.204	0.219	0.202	0.238	0.222	0.208	0.203	0.85	0.907	0.75	0.896	0.982
NCI-H520	0.599	0.25	0.24	0.181	0.179	0.429	0.424	0.365	0.395	0.361	0.455	0.575	0.589	0.496	0.586	0.713	0.914	0.716	0.75	0.751
NCI-H1755	0.833	0.595	0.426	0.34	0.329	0.559	0.595	0.477	0.344	0.317	0.738	0.712	0.75	0.735	0.694	0.866	0.864	0.838	0.837	0.939
NCI-H2023	0.684	0.549	0.154	0.0827	0.0741	0.389	0.461	0.234	0.11	0.108	0.203	0.218	0.225	0.215	0.227	0.655	0.571	0.648	0.508	0.733
NCI-H2009	0.745	0.689	0.373	0.193	0.152	0.769	0.667	0.459	0.321	0.23	0.422	0.42	0.38	0.364	0.365	0.915	1.12	0.974	1.01	1.15

From the supplement of paper PMC10307832
